# Patent US20240417405A1, “Substituted Spiro Derivatives” (Janssen Pharmaceutica NV, priority 2021, published 2024)
# Read-outs that look alike come from different tables or passages of the source.
# What was measured:
# [1] = target: T1, menin/MLL (terbium chelate-labeled menin, FITC-MBM1 peptide) (Homo sapiens, UniProt O00255, T541A); test: Menin/MLL homogenous time-resolved fluorescence (HTRF) assay; assay type: binding; settings: 30 min incubation
# T1 construct: Menin (a.a 1-610-6xhis tag)
# T1 sequence (O00255 with tags, fused parts or gaps T541A): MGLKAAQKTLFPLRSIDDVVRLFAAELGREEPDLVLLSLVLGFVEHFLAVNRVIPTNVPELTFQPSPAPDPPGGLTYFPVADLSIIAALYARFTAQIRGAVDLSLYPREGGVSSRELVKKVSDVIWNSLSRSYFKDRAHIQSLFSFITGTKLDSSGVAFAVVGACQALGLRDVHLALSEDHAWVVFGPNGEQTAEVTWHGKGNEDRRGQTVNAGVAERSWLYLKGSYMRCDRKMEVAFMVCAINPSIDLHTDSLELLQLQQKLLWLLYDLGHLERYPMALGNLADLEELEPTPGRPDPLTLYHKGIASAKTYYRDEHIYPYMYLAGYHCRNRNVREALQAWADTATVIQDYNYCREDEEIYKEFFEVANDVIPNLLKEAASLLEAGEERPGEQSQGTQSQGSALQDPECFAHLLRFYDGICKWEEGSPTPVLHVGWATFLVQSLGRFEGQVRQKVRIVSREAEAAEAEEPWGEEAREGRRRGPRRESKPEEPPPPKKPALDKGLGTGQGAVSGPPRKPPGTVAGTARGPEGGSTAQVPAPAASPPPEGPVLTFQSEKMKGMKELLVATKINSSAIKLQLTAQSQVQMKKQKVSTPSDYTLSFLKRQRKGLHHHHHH
# How it was run: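 Compounds were preincubated 30 min at ambient temperature with 200 pM terbium-labeled menin (aa 1-610, His-tagged) in Tris pH 7.5 buffer with DTT and Pluronic, then 75 nM FITC-MBM1 peptide added for 15 min. HTRF ratio 520/490 nm gave % inhibition; IC50 from four-parameter fit, floor 0.1 nM.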
# MOLM14 cells = test: Proliferation assay, spheroid-like growth, MOLM14 (MLL-AF9 rearranged); assay type: cell-based, human; settings: 8 days, confluence as measure of spheroid size, read-out: spheroid assay_OneTime MOLM14 IC50
# How it was run: (§1)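 IC50 derived from a variable-slope dose-response fit of percent confluence change, with DMSO-treated cells as high control and high-dose reference compound as low control. Spheroid-like growth of MOLM14 (200 cells/well) or KO-52 (300 cells/well) in ultra-low attachment plates, 8 days, 37° C, 5% CO2, DMSO normalised to 0.3%, imaged at day 8.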
# KO-52 cells = test: Proliferation assay, spheroid-like growth, KO-52 (MLL wildtype control cell line); assay type: cell-based, human; settings: Homo sapiens, 192 h, KO-52 control cells, 8 days, confluence as measure of spheroid size; read-out: spheroid assay_OneTime KO-52 IC50
# How it was run: as §1
Structure (SMILES),IC50 [1] [nM],"IC50 (MOLM14 cells; Homo sapiens, MOLM-14, 192 h) [nM]",IC50 (KO-52 cells) [nM],IC50 (MOLM14 cells) [nM]
CC(C)C([C@H]1C[C@@H](N2CCC(F)(F)CC2)C1)N1CC2(CCN(c3ncnnc3Oc3ccc(F)cc3-c3cncnc3C3CC3)C2)C1 (stereo partly drawn) [Compound 127],0.5,160,4660,–
CC(C)C([C@H]1C[C@H](N2CCC(F)(F)CC2)C1)N1CC2(CCN(c3ncnnc3Oc3ccc(F)cc3-c3cncnc3C3CC3)C2)C1 (stereo partly drawn) [Compound 128],1.3,450,7890,–
CC(C)C([C@H]1C[C@@H](N2CCC(C)(O)CC2)C1)N1CC2(CCN(c3ncnnc3Oc3ccc(F)cc3-c3cncnc3C3CC3)C2)C1 (stereo partly drawn) [Compound 129],0.2,11,3390,–
CC(C)C([C@H]1C[C@@H](N2CCC(C(=O)N(C)C)CC2)C1)N1CC2(CCN(c3ncnnc3Oc3ccc(F)cc3-c3cncnc3C3CC3)C2)C1 (stereo partly drawn) [Compound 131],0.2,50,6200,–
CC(C)C([C@H]1C[C@@H](N2CCC(S(C)(=O)=O)CC2)C1)N1CC2(CCN(c3ncnnc3Oc3ccc(F)cc3-c3cncnc3C3CC3)C2)C1 (stereo partly drawn) [Compound 132],0.3,76,8100,–
CC(C)C([C@H]1C[C@@H](NCC(C)(C)O)C1)N1CC2(CCN(c3ncnnc3Oc3ccc(F)cc3-c3cncnc3C3CC3)C2)C1 (stereo partly drawn) [Compound 133],0.1,21,7380,–
CC(C)C([C@H]1C[C@@H](N2CCCCC2)C1)N1CC2(CCN(c3ncnnc3Oc3ccc(F)cc3-c3cncnc3C3CC3)C2)C1 (stereo partly drawn) [Compound 135],0.3,8,1000,–
CC(C)C([C@H]1C[C@@H](N(C)C)C1)N1CC2(CCN(c3ncnnc3Oc3ccc(F)cc3-c3cncnc3C3CC3)C2)C1 (stereo partly drawn) [Compound 136],0.1,8,7070,–
CC(C)C([C@H]1C[C@@H](N2C[C@H]3COC[C@H]3C2)C1)N1CC2(CCN(c3ncnnc3Oc3ccc(F)cc3-c3cnccc3C3CC3)C2)C1 (stereo partly drawn) [Compound 138],0.1,2,460,–
CC(C)C([C@H]1C[C@H](N2C[C@H]3COC[C@H]3C2)C1)N1CC2(CCN(c3ncnnc3Oc3ccc(F)cc3-c3cnccc3C3CC3)C2)C1 (stereo partly drawn) [Compound 139],0.1,41,1310,–
CC(C)C([C@H]1C[C@@H](N2C[C@H]3COC[C@H]3C2)C1)N1CC2(CCN(c3ncnnc3Oc3ccc(F)cc3-c3cncc(C#N)c3C3CC3)C2)C1 (stereo partly drawn) [Compound 142],0.1,7,1350,–
CC(C)C([C@H]1C[C@H](N2C[C@H]3COC[C@H]3C2)C1)N1CC2(CCN(c3ncnnc3Oc3ccc(F)cc3-c3cncc(C#N)c3C3CC3)C2)C1 (stereo partly drawn) [Compound 143],0.1,27,1530,–
CC(=O)N1CCN([C@H]2C[C@@H](C(C(C)C)N3CC4(CCN(c5ncnnc5Oc5ccc(F)cc5-c5cncc(C#N)c5C5CC5)C4)C3)C2)CC1 (stereo partly drawn) [Compound 144],0.8,200,12300,–
CC(C)C(C1CC2(CCN2CC2COC2)C1)N1CC2(CCN(c3ncnnc3Oc3ccc(F)cc3-c3cncnc3C3CC3)C2)C1 (stereo not drawn) [Compound 156],0.8,100,7960,–
CC(C)[C@H]([C@H]1C[C@@H](N2CCC(C)(C(=O)N(C)C)C2)C1)N1CC2(CCN(c3ncnnc3Oc3ccc(F)cc3-c3cncnc3C3CC3)C2)C1 (stereo partly drawn) [Compound 161],0.1,4,3360,–
CC(C)[C@H]([C@H]1C[C@H](N2CCC(C)(C(=O)N(C)C)C2)C1)N1CC2(CCN(c3ncnnc3Oc3ccc(F)cc3-c3cncnc3C3CC3)C2)C1 (stereo partly drawn) [Compound 162],0.1,110,6400,–
CC(C)[C@H]([C@H]1C[C@@H](N2C[C@H]3COC[C@H]3C2)C1)N1CC2(CCN(c3ncnnc3Oc3ccc(F)cc3-c3cnc(C#N)nc3C3CC3)C2)C1 [Compound 167],0.1,< 2,4110,–

Structure (SMILES),IC50 [1] [nM],"IC50 (MOLM14 cells; Homo sapiens, MOLM-14, 192 h) [nM]",IC50 (KO-52 cells) [nM],IC50 (MOLM14 cells) [nM]
CC(C)[C@@H]([C@H]1C[C@@H](N2C[C@H]3COC[C@H]3C2)C1)N1CC2(CCN(c3ncnnc3Oc3ccc(F)cc3-c3cnc(C#N)nc3C3CC3)C2)C1 [Compound 168],0.6,53,2590,–
CC(=O)N[C@H]1C[C@@H](C(C(C)C)N2CC3(CCN(c4ncnnc4Oc4ccc(F)cc4-c4nccnc4C4CC4)C3)C2)C1 (stereo partly drawn) [Compound 176],0.5,80,10400,–
CC(=O)N[C@H]1C[C@@H](C(C(C)C)N2CC3(CCN(c4ncnnc4Oc4ccc(F)cc4-c4ncncc4C4CC4)C3)C2)C1 (stereo partly drawn) [Compound 179],0.4,73,12600,–
CC(C)C([C@H]1C[C@@H](NC(=O)C2CC2)C1)N1CC2(CCN(c3ncnnc3Oc3ccc(F)cc3-c3cnncc3C3CC3)C2)C1 (stereo partly drawn) [Compound 184],0.2,10,600,–
CC(=O)N[C@H]1C[C@@H](C(C(C)C)N2CC3(CCN(c4ncnnc4Oc4ccc(F)cc4-c4cnncc4C4CC4)C3)C2)C1 (stereo partly drawn) [Compound 187],0.8,65,> 15000,–
CC(=O)N[C@H]1C[C@@H](C(C(C)C)N2CC3(CCN(c4ncnnc4Oc4ccc(F)cc4-c4cccc(=O)n4C4CC4)C3)C2)C1 (stereo partly drawn) [Compound 188],0.2,520,> 15000,–
CC(C)C([C@H]1C[C@@H](NC(=O)C2CC2)C1)N1CC2(CCN(c3ncnnc3Oc3ccc(F)cc3-c3cccc(=O)n3C3CC3)C2)C1 (stereo partly drawn) [Compound 189],0.4,140,> 15000,–
CC(C)C([C@H]1C[C@@H](Nc2cncnc2)C1)N1CC2(CCN(c3ncnnc3Oc3ccc(F)cc3-c3cncnc3C3CC3)C2)C1 (stereo partly drawn) [Compound 193],0.2,50,> 15000,–
CC(C)C([C@H]1C[C@@H](Nc2ccn(C)n2)C1)N1CC2(CCN(c3ncnnc3Oc3ccc(F)cc3-c3cncnc3C3CC3)C2)C1 (stereo partly drawn) [Compound 194],0.9,450,> 15000,–
CC(C)C(C1CC(O)(c2cnn(C)c2)C1)N1CC2(CCN(c3ncnnc3Oc3ccc(F)cc3-c3cncnc3C3CC3)C2)C1 (stereo not drawn) [Compound 195],1.3,510,> 15000,–
CC(=O)N[C@H]1C[C@@H](C(C(C)C)N2CC3(CCN(c4ncnnc4Oc4ccc(F)cc4-c4c[nH]c(=O)nc4C4CC4)C3)C2)C1 (stereo partly drawn) [Compound 196],13.6,> 940,> 15000,–
CC(C)C(C1CC2(CCN2)C1)N1CC2(CCN(c3ncnnc3Oc3ccc(F)cc3-c3cncnc3C3CC3)C2)C1 (stereo not drawn) [Compound 198],0.3,250,> 15000,–
CC(C)C(C1CCN(CC2COC2)CC1)N1CC2(CCN(c3ncnnc3Oc3ccc(F)cc3-c3ncncc3C3CC3)C2)C1 (stereo not drawn) [Compound 203],0.8,300,1860,–
CC(C)C([C@H]1C[C@@H](NC(=O)CCN(C)C)C1)N1CC2(CCN(c3ncnnc3Oc3ccc(F)cc3-c3cncnc3C3CC3)C2)C1 (stereo partly drawn) [Compound 302],0.1,21,14100,–
CC(C)C([C@H]1C[C@@H](N2CCC3(COC3)C2)C1)N1CC2(CCN(c3ncnnc3Oc3ccc(F)cc3-c3cncnc3C3CC3)C2)C1 (stereo partly drawn) [Compound 326],0.2,32,9180,–
CC(C)C([C@H]1C[C@@H](N2CCC3(CCO3)CC2)C1)N1CC2(CCN(c3ncnnc3Oc3ccc(F)cc3-c3cncnc3C3CC3)C2)C1 (stereo partly drawn) [Compound 327],0.2,5,> 15000,–
CC(=O)N1CC2CN([C@H]3C[C@@H]([C@H](C(C)C)N4CC5(CCN(c6ncnnc6Oc6ccc(F)cc6-c6cnc(C)nc6C6CC6)C5)C4)C3)CC2C1 (stereo partly drawn) [Compound 377],0.137,–,4840,2.7
